Like-named read-outs stand apart in the source and are kept apart here.
Target: BRD4 (BDI_K57-E168) (Homo sapiens, UniProt O60885)
Test: TR-FRET bromodomain binding assay, BRD4 BDI

Compound | Ki [µM] | Ki (mean Ki, 12 nM His tagged BRD4 (BDI_K57-E168), 100 nM Alexa647 probe, Ki calculated from IC50, probe Kd and probe concentration) [µM]
Cc1cc(F)cc(C)c1Oc1ccc(C(C)(C)O)cc1-c1cn(C)c(=O)cc1O[C@H]1CC[C@H](N2NC(=O)CC2=O)CC1 [Example 121, 1-[trans-4-({5-[2-(4-fluoro-2,6-dimethylphenoxy)-5-(2-hydroxypropan-2-yl)phenyl]-1-methyl-2-oxo-1,2-dihydropyridin-4-yl}oxy)cyclohexyl]pyrazolidine-3,5-dione] | > 13 | 
Cc1cc(F)cc(C)c1Oc1ccc(C(C)(C)O)cc1-c1cn(C)c(=O)cc1O[C@H]1CC[C@H](NC(=O)N2CCOCC2)CC1 [Example 122, N-[trans-4-({5-[2-(4-fluoro-2,6-dimethylphenoxy)-5-(2-hydroxypropan-2-yl)phenyl]-1-methyl-2-oxo-1,2-dihydropyridin-4-yl}oxy)cyclohexyl]morpholine-4-carboxamide] | 3.67 | 
Cc1cc(F)cc(C)c1Oc1ccc(C(C)(C)O)cc1-c1cn(C)c(=O)cc1O[C@H]1CC[C@H](NC(=O)N2CCNC2=O)CC1 [Example 123, N-[trans-4-({5-[2-(4-fluoro-2,6-dimethylphenoxy)-5-(2-hydroxypropan-2-yl)phenyl]-1-methyl-2-oxo-1,2-dihydropyridin-4-yl}oxy)cyclohexyl]-2-oxoimidazolidine-1-carboxamide] | > 13 | 
Cc1cc(F)cc(C)c1Oc1ccc(C(C)(C)O)cc1-c1cn(C)c(=O)cc1O[C@H]1CC[C@H](N2C(=O)N[C@@H](C)C2=O)CC1 [Example 124, (5S)-3-[trans-4-({5-[2-(4-fluoro-2,6-dimethylphenoxy)-5-(2-hydroxypropan-2-yl)phenyl]-1-methyl-2-oxo-1,2-dihydropyridin-4-yl}oxy)cyclohexyl]-5-methylimidazolidine-2,4-dione] | > 13 | 
Cc1cc(F)cc(C)c1Oc1ccc(C(C)(C)O)cc1-c1cn(C)c(=O)cc1O[C@H]1CC[C@H](N2C(=O)CNC2=O)CC1 [Example 125, 3-[trans-4-({5-[2-(4-fluoro-2,6-dimethylphenoxy)-5-(2-hydroxypropan-2-yl)phenyl]-1-methyl-2-oxo-1,2-dihydropyridin-4-yl}oxy)cyclohexyl]imidazolidine-2,4-dione] | > 13 | 
CCN1CC(=O)N([C@H]2CC[C@H](Oc3cc(=O)n(C)cc3-c3cc(C(C)(C)O)ccc3Oc3c(C)cc(F)cc3C)CC2)C1=O [Example 127, 1-ethyl-3-[trans-4-({5-[2-(4-fluoro-2,6-dimethylphenoxy)-5-(2-hydroxypropan-2-yl)phenyl]-1-methyl-2-oxo-1,2-dihydropyridin-4-yl}oxy)cyclohexyl]imidazolidine-2,4-dione] | 8.85 | 
CNC(=O)N[C@H]1CC[C@H](Oc2cc(=O)n(C)cc2-c2cc(C(C)(C)O)ccc2Oc2c(C)cc(F)cc2C)CC1 [Example 128, N-[trans-4-({5-[2-(4-fluoro-2,6-dimethylphenoxy)-5-(2-hydroxypropan-2-yl)phenyl]-1-methyl-2-oxo-1,2-dihydropyridin-4-yl}oxy)cyclohexyl]-N′-methylurea] | 2.11 | 
Cc1ccc(=O)n([C@H]2CC[C@H](Oc3cc(=O)n(C)cc3-c3cc(C(C)(C)O)ccc3Oc3c(C)cc(F)cc3C)CC2)n1 [Example 130, 2-[trans-4-({5-[2-(4-fluoro-2,6-dimethylphenoxy)-5-(2-hydroxypropan-2-yl)phenyl]-1-methyl-2-oxo-1,2-dihydropyridin-4-yl}oxy)cyclohexyl]-6-methylpyridazin-3(2H)-one] | 3.19 | 
Cc1cc(F)cc(C)c1Oc1ccc(C(C)(C)O)cc1-c1cn(C)c(=O)cc1O[C@H]1CC[C@H](N2C(=O)N[C@H](C(C)C)C2=O)CC1 [Example 131, (5R)-3-[trans-4-({5-[2-(4-fluoro-2,6-dimethylphenoxy)-5-(2-hydroxypropan-2-yl)phenyl]-1-methyl-2-oxo-1,2-dihydropyridin-4-yl}oxy)cyclohexyl]-5-(propan-2-yl)imidazolidine-2,4-dione] | 6.32 | 
Cc1cc(F)cc(C)c1Oc1ccc(C(C)(C)O)cc1-c1cn(C)c(=O)cc1O[C@H]1CC[C@H](N2C(=O)N[C@H](C)C2=O)CC1 [Example 132, (5R)-3-[trans-4-({5-[2-(4-fluoro-2,6-dimethylphenoxy)-5-(2-hydroxypropan-2-yl)phenyl]-1-methyl-2-oxo-1,2-dihydropyridin-4-yl}oxy)cyclohexyl]-5-methylimidazolidine-2,4-dione] | 4.21 | 
CC=C1NC(=O)N([C@H]2CC[C@H](Oc3cc(=O)n(C)cc3-c3cc(C(C)(C)O)ccc3Oc3c(C)cc(F)cc3C)CC2)C1=O [Example 133, 5-ethylidene-3-[trans-4-({5-[2-(4-fluoro-2,6-dimethylphenoxy)-5-(2-hydroxypropan-2-yl)phenyl]-1-methyl-2-oxo-1,2-dihydropyridin-4-yl}oxy)cyclohexyl]imidazolidine-2,4-dione] | > 13 | 
COCCN1CC(=O)N([C@H]2CC[C@H](Oc3cc(=O)n(C)cc3-c3cc(C(C)(C)O)ccc3Oc3c(C)cc(F)cc3C)CC2)C1=O [Example 135, 3-[trans-4-({5-[2-(4-fluoro-2,6-dimethylphenoxy)-5-(2-hydroxypropan-2-yl)phenyl]-1-methyl-2-oxo-1,2-dihydropyridin-4-yl}oxy)cyclohexyl]-1-(2-methoxyethyl)imidazolidine-2,4-dione] | 3.68 | 
Cc1cc(F)cc(C)c1Oc1ccc(C(C)(C)O)cc1-c1cn(C)c(=O)cc1O[C@H]1CC[C@H](N2C(=O)NC3(CC3)C2=O)CC1 [Example 136, 6-[trans-4-({5-[2-(4-fluoro-2,6-dimethylphenoxy)-5-(2-hydroxypropan-2-yl)phenyl]-1-methyl-2-oxo-1,2-dihydropyridin-4-yl}oxy)cyclohexyl]-4,6-diazaspiro[2.4]heptane-5,7-dione] | 2.47 | 
Cc1cc(F)cc(C)c1Oc1ccc(C(C)(C)O)cc1-c1cn(C)c(=O)cc1O[C@H]1CC[C@H](N2C(=O)[C@H]3CCCN3C2=O)CC1 [Example 138, (7aR)-2-[trans-4-({5-[2-(4-fluoro-2,6-dimethylphenoxy)-5-(2-hydroxypropan-2-yl)phenyl]-1-methyl-2-oxo-1,2-dihydropyridin-4-yl}oxy)cyclohexyl]tetrahydro-1H-pyrrolo[1,2-c]imidazole-1,3(2H)-dione] | 12.8 | 
Cc1cc(F)cc(C)c1Oc1ccc(C(C)(C)O)cc1-c1cn(C)c(=O)cc1O[C@H]1CC[C@H](NC(=O)C(C)(C)N)CC1 [Example 139, N-[trans-4-({5-[2-(4-fluoro-2,6-dimethylphenoxy)-5-(2-hydroxypropan-2-yl)phenyl]-1-methyl-2-oxo-1,2-dihydropyridin-4-yl}oxy)cyclohexyl]-2-methylalaninamide] | 0.645 | 
Cc1cc(F)cc(C)c1Oc1ccc(C(C)(C)O)cc1-c1cn(C)c(=O)cc1O[C@H]1CC[C@H](N2C(=O)NC(C)(C)C2=O)CC1 [Example 140, 3-[trans-4-({5-[2-(4-fluoro-2,6-dimethylphenoxy)-5-(2-hydroxypropan-2-yl)phenyl]-1-methyl-2-oxo-1,2-dihydropyridin-4-yl}oxy)cyclohexyl]-5,5-dimethylimidazolidine-2,4-dione] | 11.2 | 
Cc1cc(F)cc(C)c1Oc1ccc(C(C)(C)O)cc1-c1cn(C)c(=O)cc1O[C@H]1CC[C@H](n2ncccc2=O)CC1 [Example 141, 2-[trans-4-({5-[2-(4-fluoro-2,6-dimethylphenoxy)-5-(2-hydroxypropan-2-yl)phenyl]-1-methyl-2-oxo-1,2-dihydropyridin-4-yl}oxy)cyclohexyl]pyridazin-3(2H)-one] | 4.09 | 
Cc1cc(F)cc(C)c1Oc1ccc(C(C)(C)O)cc1-c1cn(C)c(=O)cc1O[C@H]1CC[C@H](N2C(=O)N(C)C(C)(C)C2=O)CC1 [Example 142, 3-[trans-4-({5-[2-(4-fluoro-2,6-dimethylphenoxy)-5-(2-hydroxypropan-2-yl)phenyl]-1-methyl-2-oxo-1,2-dihydropyridin-4-yl}oxy)cyclohexyl]-1,5,5-trimethylimidazolidine-2,4-dione] | 0.94 | 
Cc1cc(F)cc(C)c1Oc1ccc(C(C)(C)O)cc1-c1cn(C)c(=O)cc1O[C@H]1CC[C@H](n2cccnc2=O)CC1 [Example 143, 1-[trans-4-({5-[2-(4-fluoro-2,6-dimethylphenoxy)-5-(2-hydroxypropan-2-yl)phenyl]-1-methyl-2-oxo-1,2-dihydropyridin-4-yl}oxy)cyclohexyl]pyrimidin-2(1H)-one] | 5.24 | 
Cc1cc(F)cc(C)c1Oc1ccc(C(C)(C)O)cc1-c1cn(C)c(=O)cc1O[C@H]1CC[C@H](n2cnccc2=O)CC1 [Example 144, 3-[trans-4-({5-[2-(4-fluoro-2,6-dimethylphenoxy)-5-(2-hydroxypropan-2-yl)phenyl]-1-methyl-2-oxo-1,2-dihydropyridin-4-yl}oxy)cyclohexyl]pyrimidin-4(3H)-one] | > 13 | 
Cc1cc(F)cc(C)c1Oc1ccc(C(C)(C)O)cc1-c1cn(C)c(=O)cc1O[C@H]1CC[C@H](N2C(=O)N(C)C3(CC3)C2=O)CC1 [Example 145, 6-[trans-4-({5-[2-(4-fluoro-2,6-dimethylphenoxy)-5-(2-hydroxypropan-2-yl)phenyl]-1-methyl-2-oxo-1,2-dihydropyridin-4-yl}oxy)cyclohexyl]-4-methyl-4,6-diazaspiro[2.4]heptane-5,7-dione] | > 13 | 
methyl [trans-4-({5-[2-(4-fluoro-2,6-dimethylphenoxy)-5-(2-hydroxypropan-2-yl)phenyl]-1-methyl-2-oxo-1,2-dihydropyridin-4-yl}oxy)cyclohexyl]methylcarbamate [Example 21] |  | 3.02

Reference: patent US20210047304A1, “Bromodomain Inhibitors” (AbbVie Inc., priority 2016, published 2021)
